Common to all, as to type: cell-based
Experiment [1] deals with T1, hDAT (Homo sapiens, UniProt Q01959).
T1 construct: expressed in transfected cells
Briefly: Transporter uptake inhibition in HEK293 cells expressing hDAT. The following applies: [3H]-MPP+ uptake. The protocol: (§1) The generation of HEK293 cells stably expressing the human isoforms of DAT (hDAT) and NET (hNET) was carried out as described previously (Scholze et al., 2002). For SERT, the human isoform (hSERT) was cloned in frame with yellow fluorescent protein (Schmid et al., 2001). The generation of a stable cell line was performed as described by Hilber and colleagues (Hilber et al., 2005). HEK293 cells were maintained in humidified atmosphere (5% CO2, 37°C) in DMEM, supplemented with 10% heat‐inactivated FBS and penicillin (100 u 100 mL^−1) and streptomycin (100 μg 100 mL^−1). Selection pressure was maintained by adding geneticin (50 μg·mL^−1) to the cell culture media.
(§2) Uptake experiments were conducted as described previously (Sitte et al., 2001) with minor modifications. In brief, HEK293 cells expressing hDAT, hNET or hSERT were seeded into poly‐D‐lysine (PDL) coated 96‐well plates at a density of 40 000 cells per well. The next day, DMEM was aspirated and replaced with Krebs HEPES buffer (KHB, 25 mM HEPES, 120 mM NaCl, 5 mM KCl, 1.2 mM CaCl2, and 1.2 mM MgSO4, 5 mM D‐glucose, pH adjusted to 7.3 with NaOH) (200 μL per well), and cells were pre‐incubated with various concentrations of mephedrone or its metabolites for 5 min (50 μL per well). Subsequently, 0.1 μM of [^3H]‐5‐HT or 0.02 μM of [^3H]‐MPP^+ were added, and uptake was terminated after 1 (hSERT) or 3 min (hDAT, hNET) by washing the cells with 200 μL of ice‐cold KHB. Cells were lysed with 1% SDS, and tritium uptake was determined by scintillation counting. Nonspecific uptake was determined in the presence of 10 μM paroxetine (hSERT) or 10 μM mazindol (hDAT and hNET).
(§3) Calculations were performed using Microsoft Excel® 2010 (Microsoft Corporation, Redmond, WA, USA) and GRAPHPAD PRISM 5.0. (GraphPad Software Inc., La Jolla, CA, USA). IC50 values for uptake inhibition and EC50 values for release were determined by nonlinear regression fits. Release data expressed as AUC were analysed by one‐way ANOVA followed by Bonferroni's multiple comparison test. Microdialysis and locomotor data were analysed by two‐way ANOVA (drug treatment × time) followed by Bonferroni's test. The effect of monensin treatment on basal efflux of tritiated substrate was analysed with the Mann–Whitney test. P values less than 0.05 (i.e. P < 0.05) were considered significant. The data and statistical analysis comply with the recommendations on experimental design and analysis in pharmacology (Curtis et al., 2015).

The target in experiment [2] is T2, hNET (Homo sapiens, UniProt P23975).
T2 construct: expressed in transfected cells
The experiment can be described thus: Transporter uptake inhibition in HEK293 cells expressing hNET. The following applies: [3H]-MPP+ uptake. The protocol: as §1, §2
as §3, with “GRAPHPAD” left out

In the next experiment the target is T3, hSERT (Homo sapiens, UniProt P31645).
T3 construct: yellow fluorescent protein (YFP); expressed in transfected cells
Briefly: Transporter uptake inhibition in HEK293 cells expressing hSERT. The following applies: [3H]-5-HT uptake. Here is the method:
as §1, §2, §3

Experiment [3] addresses T1, hDAT. The experiment can be described thus: Transporter release (superfusion) assay in HEK293 cells expressing hDAT. Here is the method:
as §1
(§4) Superfusion experiments were performed as described previously (Scholze et al., 2002). Briefly, HEK293 cells expressing the desired transporter were seeded at a density of 40 000 cells per well onto poly‐D‐lysine‐coated 5 mm glass cover slips in 96‐well plates 24 h prior to the experiment. Cells were preloaded with [^3H]‐MPP^+ (0.1 μM, hDAT and hNET) or [^3H]‐5‐HT (0.4 μM, hSERT) for 20 min at 37°C in a final volume of 100 μL per well. Subsequently, glass coverslips were transferred into small superfusion chambers (volume of 200 μL) and superfused with KHB at 25°C with a superfusion rate of 0.7 mL·min^−1 for 40 min to establish a stable basal efflux. After washout, the collection of 2‐min fractions was initiated. After the first three basal fractions, monensin (10 μM) or solvent was added for four fractions. Consequently, the cells were challenged with test drugs (10 μM) for five fractions in the presence or absence of monensin. Finally, the cells were lysed in 1% SDS to determine the total radioactivity. Radioactivity per fraction was assessed by a liquid scintillation counter and expressed as fractional release, that is, the percentage of released ^3H in relation to total ^3H present at the beginning of the fraction (Sitte et al., 2000). For analysis, release was expressed as AUC.
as §3
Data from uptake inhibition assays cannot distinguish whether test drugs act as non‐transported inhibitors or transportable substrates, which evoke release (Scholze et al., 2000; Sitte et al., 2000; Baumann et al., 2013). Therefore, mephedrone and its metabolites were tested in release assays to further explore their interaction with transporters. The release assays were performed with the same transporter‐expressing HEK293 cell lines described above and used a superfusion system (Sitte et al., 2000). As described previously, efflux of preloaded [^3H]‐MPP^+ or [^3H]‐5‐HT was monitored in the presence or absence of monensin (10 μM) (Scholze et al., 2000). […]

The target of experiment [4] is T2, hNET. The experiment can be described thus: Transporter release (superfusion) assay in HEK293 cells expressing hNET. The following applies: test drug 10 μM, monensin 10 μM; post hoc Bonferroni. The protocol:
as §1
as §4, with “Consequently, the cells were challenged with test drugs (10 μM) for five fractions in the presence or absence of monensin.” left out
Calculations were performed using Microsoft Excel® 2010 (Microsoft Corporation, Redmond, WA, USA) and GRAPHPAD PRISM 5.0. […] IC50 values for uptake inhibition and EC50 values for release were determined by nonlinear regression fits. Release data expressed as AUC were analysed by one‐way ANOVA followed by Bonferroni's multiple comparison test. Microdialysis and locomotor data were analysed by two‐way ANOVA (drug treatment × time) followed by Bonferroni's test. The effect of monensin treatment on basal efflux of tritiated substrate was analysed with the Mann–Whitney test. […]
Data from uptake inhibition assays cannot distinguish whether test drugs act as non‐transported inhibitors or transportable substrates, which evoke release (Scholze et al., 2000; Sitte et al., 2000; Baumann et al., 2013). […] As described previously, efflux of preloaded [^3H]‐MPP^+ or [^3H]‐5‐HT was monitored in the presence or absence of monensin (10 μM) (Scholze et al., 2000). […]

The values that follow come from paper PMC4978154, “Phase I metabolites of mephedrone display biological activity as substrates at monoamine transporters” (British Journal of Pharmacology, 2016).

Values joined by “and” are separate entries in the source; they are usually repeats but may differ in a detail not shown here. Identical values can stand only once.

As a reminder, the IC50 is the concentration needed to halve the response being measured. Lower therefore signals higher potency.

T2 sequence (P23975 whole entry): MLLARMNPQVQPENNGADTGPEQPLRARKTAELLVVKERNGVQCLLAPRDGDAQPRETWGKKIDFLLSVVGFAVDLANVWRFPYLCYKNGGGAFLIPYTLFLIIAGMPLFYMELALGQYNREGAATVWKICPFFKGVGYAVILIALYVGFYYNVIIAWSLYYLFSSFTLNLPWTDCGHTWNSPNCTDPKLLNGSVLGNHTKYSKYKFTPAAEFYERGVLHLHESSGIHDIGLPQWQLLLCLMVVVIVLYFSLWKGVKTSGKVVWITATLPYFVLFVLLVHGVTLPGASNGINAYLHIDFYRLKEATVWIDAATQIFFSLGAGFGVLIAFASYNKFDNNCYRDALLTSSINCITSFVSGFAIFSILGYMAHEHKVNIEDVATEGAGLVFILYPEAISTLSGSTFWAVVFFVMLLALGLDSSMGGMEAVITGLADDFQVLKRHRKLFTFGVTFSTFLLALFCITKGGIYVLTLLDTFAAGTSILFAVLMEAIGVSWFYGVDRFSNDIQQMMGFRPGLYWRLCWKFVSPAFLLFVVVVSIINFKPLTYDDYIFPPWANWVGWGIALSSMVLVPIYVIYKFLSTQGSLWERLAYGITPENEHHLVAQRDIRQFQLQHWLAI
T1 sequence (Q01959 whole entry): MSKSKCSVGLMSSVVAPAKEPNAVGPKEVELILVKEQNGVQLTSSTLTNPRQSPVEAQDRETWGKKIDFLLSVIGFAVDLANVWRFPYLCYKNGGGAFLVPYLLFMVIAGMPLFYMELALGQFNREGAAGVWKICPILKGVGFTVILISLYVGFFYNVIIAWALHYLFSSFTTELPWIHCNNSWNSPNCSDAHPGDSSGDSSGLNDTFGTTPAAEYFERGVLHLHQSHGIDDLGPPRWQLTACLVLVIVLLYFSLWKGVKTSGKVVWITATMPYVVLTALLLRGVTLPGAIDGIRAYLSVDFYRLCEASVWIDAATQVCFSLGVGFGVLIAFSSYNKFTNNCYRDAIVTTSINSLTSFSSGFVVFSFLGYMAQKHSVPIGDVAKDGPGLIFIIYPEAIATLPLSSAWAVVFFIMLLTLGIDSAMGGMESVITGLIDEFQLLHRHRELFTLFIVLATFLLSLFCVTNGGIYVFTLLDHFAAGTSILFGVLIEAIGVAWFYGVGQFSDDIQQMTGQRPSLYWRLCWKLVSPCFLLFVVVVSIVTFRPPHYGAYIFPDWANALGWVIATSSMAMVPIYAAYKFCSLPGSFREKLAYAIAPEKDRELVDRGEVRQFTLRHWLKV
T3 sequence (P31645 whole entry): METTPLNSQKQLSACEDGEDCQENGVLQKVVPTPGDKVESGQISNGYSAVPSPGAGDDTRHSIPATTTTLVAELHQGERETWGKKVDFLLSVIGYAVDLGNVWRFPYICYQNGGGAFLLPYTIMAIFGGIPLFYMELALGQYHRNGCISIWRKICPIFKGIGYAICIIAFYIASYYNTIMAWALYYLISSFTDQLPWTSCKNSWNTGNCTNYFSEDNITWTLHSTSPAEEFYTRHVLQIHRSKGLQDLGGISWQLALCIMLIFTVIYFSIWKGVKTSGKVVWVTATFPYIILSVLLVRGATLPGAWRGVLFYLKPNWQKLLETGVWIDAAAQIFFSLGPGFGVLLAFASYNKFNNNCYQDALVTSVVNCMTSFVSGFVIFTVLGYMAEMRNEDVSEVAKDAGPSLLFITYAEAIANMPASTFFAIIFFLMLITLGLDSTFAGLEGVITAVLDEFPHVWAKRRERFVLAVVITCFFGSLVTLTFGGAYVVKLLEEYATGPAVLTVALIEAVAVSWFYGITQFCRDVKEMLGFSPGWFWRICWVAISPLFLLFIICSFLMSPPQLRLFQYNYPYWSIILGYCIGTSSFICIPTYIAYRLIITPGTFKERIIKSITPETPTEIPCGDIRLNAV

In the case of `CNC(C)C(O)c1ccc(C)cc1.Cl` (stereo not drawn) [Dihydromephedrone, 2‐(methylamino)‐1‐(p‐tolyl)propan‐1‐ol hydrochloride], the 50% inhibitory concentration (IC50) was 24 µM at hDAT [1] (IC50 on uptake mediated by hDAT, mean (95% confidence interval)); 24 µM and 23.5 µM at hNET [2] (IC50 on uptake mediated by hNET, mean (95% confidence interval)); 65 µM on hSERT (IC50 on uptake mediated by hSERT, mean (95% confidence interval)). Also, on hDAT [1], the “efficacy of uptake inhibition at hDAT” value was “fully efficacious inhibitors of uptake”. Moreover, at hNET [2], the “efficacy of uptake inhibition at hNET” value was “fully efficacious inhibitors of uptake”. On hSERT, the “efficacy of uptake inhibition at hSERT” value is “fully efficacious inhibitors of uptake”. In addition, the “enhancement by monensin of drug-evoked [3H]-MPP+ release at hDAT (AUC)” value at hDAT [3] (test drug 10 μM, monensin 10 μM, post hoc Bonferroni) is listed as “not”. For the same compound, the “enhancement by monensin of drug-evoked [3H]-MPP+ release at hNET (AUC)” value on hNET [4] was “not”.

On to `CC[C@@]1([C@@H]2O[C@@H]([C@H]3O[C@@](O)(CO)[C@H](C)C[C@@H]3C)C[C@@H]2C)CC[C@H]([C@]2(C)CC[C@]3(C[C@H](O)[C@@H](C)[C@@H]([C@@H](C)[C@@H](OC)[C@H](C)C(=O)O)O3)O2)O1` [monensin, reference compound], for which the “effect of monensin alone on substrate release (basal efflux)” value on hDAT [3] (monensin 10 μM alone, P < 0.05, Mann–Whitney test) is reported as “significant albeit modest increase”.
